# Key:
# [1] = biological target: Glycogen synthase kinase-3 beta (Homo sapiens, UniProt P49841); experiment: Inhibition of human recombinant GSK3beta by ADP-Glo Kinase Assay
# [2] = biological target: T1, Acetylcholinesterase (Homo sapiens, UniProt P22303)
# [3] = biological target: T2, Amine oxidase [flavin-containing] B (Homo sapiens, UniProt P27338); experiment: Inhibition of human MAO-B using Tyramine hydrochloride as substrate preincubated for 30 mins followed by substrate addition and measured for 1 hr by fluorometric method
# T2 sequence (P27338 whole entry): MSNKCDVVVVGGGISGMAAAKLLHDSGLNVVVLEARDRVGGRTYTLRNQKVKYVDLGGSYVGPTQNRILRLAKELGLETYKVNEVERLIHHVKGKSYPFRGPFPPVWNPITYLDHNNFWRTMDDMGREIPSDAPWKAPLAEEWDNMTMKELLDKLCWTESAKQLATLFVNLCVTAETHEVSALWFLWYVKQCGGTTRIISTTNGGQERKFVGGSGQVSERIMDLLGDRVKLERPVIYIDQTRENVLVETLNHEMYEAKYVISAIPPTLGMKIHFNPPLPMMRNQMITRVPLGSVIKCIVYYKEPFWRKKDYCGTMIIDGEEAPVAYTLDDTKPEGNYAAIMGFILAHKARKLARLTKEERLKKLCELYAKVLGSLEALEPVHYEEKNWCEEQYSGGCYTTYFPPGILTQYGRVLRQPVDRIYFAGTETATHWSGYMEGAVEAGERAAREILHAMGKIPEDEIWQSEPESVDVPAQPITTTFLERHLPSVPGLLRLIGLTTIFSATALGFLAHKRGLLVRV
# [4] = biological target: T1, Acetylcholinesterase; experiment: Inhibition of AChE (unknown origin)
# [5] = biological target: T3, Acetylcholinesterase (Electrophorus electricus, UniProt O42275); experiment: Inhibition of electric eel AChE using acetylthiocholine iodide as substrate preincubated for 5 mins followed by substrate addition by DTNB reagent based Ellman's method
# [6] = biological target: T4, Cholinesterase (Homo sapiens, UniProt P06276); experiment: Inhibition of BChE (unknown origin) incubated for 10 mins by Ellman's method
# [7] = biological target: T2, Amine oxidase [flavin-containing] B; experiment: Inhibition of MAO-B (unknown origin)
# [8] = biological target: T5, Amine oxidase [flavin-containing] A (Homo sapiens, UniProt P21397); experiment: Inhibition of MAO-A (unknown origin)
# T5 sequence (P21397 whole entry): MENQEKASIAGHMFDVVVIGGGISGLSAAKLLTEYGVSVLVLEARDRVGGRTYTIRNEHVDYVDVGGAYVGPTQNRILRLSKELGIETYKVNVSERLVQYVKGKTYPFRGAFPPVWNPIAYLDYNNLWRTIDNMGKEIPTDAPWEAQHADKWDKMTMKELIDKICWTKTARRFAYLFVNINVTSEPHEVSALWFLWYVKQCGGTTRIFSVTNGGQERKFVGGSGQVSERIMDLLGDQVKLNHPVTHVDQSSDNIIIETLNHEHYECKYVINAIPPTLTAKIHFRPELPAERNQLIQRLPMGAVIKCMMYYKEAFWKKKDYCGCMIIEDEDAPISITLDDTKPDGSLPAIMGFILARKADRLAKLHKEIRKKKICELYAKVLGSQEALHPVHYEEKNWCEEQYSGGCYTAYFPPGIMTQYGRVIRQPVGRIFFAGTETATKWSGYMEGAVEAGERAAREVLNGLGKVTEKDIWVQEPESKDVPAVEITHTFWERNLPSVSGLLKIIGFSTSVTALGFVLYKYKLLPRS
# [9] = biological target: T6, Beta-secretase 1 (Homo sapiens, UniProt P56817); experiment: Inhibition of BACE-1 (unknown origin)
# [10] = biological target: Cholinesterase (Equus caballus, UniProt P81908); experiment: Inhibition of equine serum BuChE using butyrylthiocholine iodide as substrate preincubated for 5 mins followed by substrate addition by DTNB reagent based Ellman's method
# [11] = biological target: T1, Acetylcholinesterase; remark: listed apart in the source
# Description: Inhibition of human AChE by Ellman's method
# [12] = biological target: T1, Acetylcholinesterase; experiment: Inhibition of AChE (unknown origin) at 40 uM by Ellman's method relative to control
# [13] = biological target: T1, Acetylcholinesterase; experiment: Inhibition of AChE (unknown origin) by Ellman's method
# [14] = biological target: T6, Beta-secretase 1; experiment: Inhibition of BACE-1 (unknown origin) measured after 2 hrs by FRET assay
# [15] = biological target: T3, Acetylcholinesterase; experiment: Inhibition of electric eel AChE using acetylthiocholine iodide as substrate preincubated with compounds for 20 mins followed by substrate addition and measured after 5 mins by Ellman's method
# [16] = biological target: T1, Acetylcholinesterase; experiment: Inhibition of AChE (unknown origin) incubated for 1 hr by Ellman's method
# [17] = biological target: T6, Beta-secretase 1; experiment: Inhibition of human BACE-1 by FRET assay
# [18] = biological target: T1, Acetylcholinesterase; experiment: Inhibition of AChE (unknown origin) using acetylthiocholine iodide as substrate measured after 15 mins by Ellman's method
# [19] = biological target: T6, Beta-secretase 1; experiment: Inhibition of BACE-1 (unknown origin) incubated for 60 mins by TR-FRET assay
# [20] = biological target: T1, Acetylcholinesterase; experiment: Inhibition of human AChE using acetylthiocholine iodide as substrate after 15 mins by Ellman's method
# [21] = biological target: T4, Cholinesterase; experiment: Inhibition of human BChE using butyrylthiocholineiodide as substrate measured for 30 mins by Ellman's method
# [22] = biological target: T1, Acetylcholinesterase; experiment: Inhibition of human AChE using acetylthiocholine iodide as substrate measured for 1 hr by Ellman's method
# [23] = Permeability of compound at pH 7.4 by PAMPA assay; assay type: ADME; conditions: read-out: permeability
# T6 sequence (P56817 whole entry): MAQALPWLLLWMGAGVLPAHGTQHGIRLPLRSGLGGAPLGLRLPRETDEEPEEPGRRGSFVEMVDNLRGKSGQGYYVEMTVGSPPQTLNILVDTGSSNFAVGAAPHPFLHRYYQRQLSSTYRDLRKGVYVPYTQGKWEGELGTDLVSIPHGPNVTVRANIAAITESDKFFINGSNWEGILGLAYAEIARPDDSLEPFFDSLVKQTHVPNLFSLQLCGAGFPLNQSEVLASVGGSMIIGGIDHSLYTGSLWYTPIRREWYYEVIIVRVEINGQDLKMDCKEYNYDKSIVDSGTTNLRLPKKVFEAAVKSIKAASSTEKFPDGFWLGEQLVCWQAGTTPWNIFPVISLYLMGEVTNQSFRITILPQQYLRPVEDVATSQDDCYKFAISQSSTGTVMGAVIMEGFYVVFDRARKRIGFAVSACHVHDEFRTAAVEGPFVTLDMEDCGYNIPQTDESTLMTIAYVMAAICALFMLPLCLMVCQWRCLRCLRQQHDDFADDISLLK
# T1 sequence (P22303 whole entry): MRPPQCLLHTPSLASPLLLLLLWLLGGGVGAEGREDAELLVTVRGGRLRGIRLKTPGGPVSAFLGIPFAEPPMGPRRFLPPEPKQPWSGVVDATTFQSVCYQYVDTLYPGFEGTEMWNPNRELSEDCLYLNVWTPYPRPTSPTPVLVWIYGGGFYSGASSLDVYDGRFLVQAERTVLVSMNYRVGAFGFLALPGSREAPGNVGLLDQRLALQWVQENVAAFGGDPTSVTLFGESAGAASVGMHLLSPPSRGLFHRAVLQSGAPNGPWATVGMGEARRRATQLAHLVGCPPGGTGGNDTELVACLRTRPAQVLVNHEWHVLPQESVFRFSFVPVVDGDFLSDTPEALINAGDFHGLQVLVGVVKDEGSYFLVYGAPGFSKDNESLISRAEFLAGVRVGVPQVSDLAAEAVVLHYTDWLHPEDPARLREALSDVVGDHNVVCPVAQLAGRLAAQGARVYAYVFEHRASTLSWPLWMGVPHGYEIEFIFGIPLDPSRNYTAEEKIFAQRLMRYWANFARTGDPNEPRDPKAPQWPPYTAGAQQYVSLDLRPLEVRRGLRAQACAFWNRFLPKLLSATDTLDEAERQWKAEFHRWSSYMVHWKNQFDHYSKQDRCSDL
# T3 sequence (O42275 whole entry): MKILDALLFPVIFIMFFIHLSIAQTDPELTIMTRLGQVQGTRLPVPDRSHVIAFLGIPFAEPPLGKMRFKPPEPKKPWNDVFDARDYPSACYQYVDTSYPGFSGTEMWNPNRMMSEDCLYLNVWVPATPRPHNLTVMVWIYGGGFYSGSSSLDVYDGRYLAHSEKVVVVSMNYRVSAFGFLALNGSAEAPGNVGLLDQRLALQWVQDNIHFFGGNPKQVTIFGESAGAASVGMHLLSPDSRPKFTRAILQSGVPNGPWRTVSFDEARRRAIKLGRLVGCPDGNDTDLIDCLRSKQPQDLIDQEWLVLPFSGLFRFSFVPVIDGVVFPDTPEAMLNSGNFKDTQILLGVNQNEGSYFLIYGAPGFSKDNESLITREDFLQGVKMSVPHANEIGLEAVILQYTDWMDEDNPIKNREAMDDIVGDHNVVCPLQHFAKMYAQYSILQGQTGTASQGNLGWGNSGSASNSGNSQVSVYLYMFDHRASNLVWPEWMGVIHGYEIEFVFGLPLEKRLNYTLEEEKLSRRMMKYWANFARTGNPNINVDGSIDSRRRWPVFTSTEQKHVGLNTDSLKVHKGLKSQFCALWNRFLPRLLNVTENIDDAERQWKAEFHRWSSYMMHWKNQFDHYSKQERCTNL
# T4 sequence (P06276 whole entry): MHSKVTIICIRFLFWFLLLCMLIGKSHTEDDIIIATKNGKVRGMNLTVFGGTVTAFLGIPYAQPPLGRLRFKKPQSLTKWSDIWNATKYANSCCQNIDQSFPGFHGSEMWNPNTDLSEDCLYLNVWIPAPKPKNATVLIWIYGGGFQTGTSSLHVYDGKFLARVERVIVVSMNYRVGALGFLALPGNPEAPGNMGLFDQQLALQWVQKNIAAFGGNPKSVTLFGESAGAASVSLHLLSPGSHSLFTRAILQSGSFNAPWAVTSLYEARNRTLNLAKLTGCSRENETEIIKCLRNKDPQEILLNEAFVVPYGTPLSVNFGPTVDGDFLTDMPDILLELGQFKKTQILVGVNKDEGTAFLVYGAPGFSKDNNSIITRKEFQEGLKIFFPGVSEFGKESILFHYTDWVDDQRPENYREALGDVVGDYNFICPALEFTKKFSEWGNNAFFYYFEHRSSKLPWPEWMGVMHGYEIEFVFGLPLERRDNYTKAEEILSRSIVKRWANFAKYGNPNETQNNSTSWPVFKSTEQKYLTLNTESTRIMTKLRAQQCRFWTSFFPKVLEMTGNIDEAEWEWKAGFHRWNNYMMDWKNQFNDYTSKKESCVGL
# Glycogen synthase kinase-3 beta, sequence (P49841 whole entry): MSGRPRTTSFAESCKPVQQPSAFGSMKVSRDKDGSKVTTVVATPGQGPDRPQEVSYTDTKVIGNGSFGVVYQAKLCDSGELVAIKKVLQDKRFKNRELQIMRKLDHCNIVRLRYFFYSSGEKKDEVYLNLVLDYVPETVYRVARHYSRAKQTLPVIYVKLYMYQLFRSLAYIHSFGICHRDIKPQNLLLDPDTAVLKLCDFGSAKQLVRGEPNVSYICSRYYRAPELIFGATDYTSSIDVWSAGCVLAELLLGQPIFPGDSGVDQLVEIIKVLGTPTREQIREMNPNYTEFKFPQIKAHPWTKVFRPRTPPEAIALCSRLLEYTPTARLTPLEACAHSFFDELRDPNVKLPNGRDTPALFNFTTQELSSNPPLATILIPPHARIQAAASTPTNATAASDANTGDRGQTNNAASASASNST
# Cholinesterase (Equus caballus, UniProt P81908), sequence (P81908 whole entry): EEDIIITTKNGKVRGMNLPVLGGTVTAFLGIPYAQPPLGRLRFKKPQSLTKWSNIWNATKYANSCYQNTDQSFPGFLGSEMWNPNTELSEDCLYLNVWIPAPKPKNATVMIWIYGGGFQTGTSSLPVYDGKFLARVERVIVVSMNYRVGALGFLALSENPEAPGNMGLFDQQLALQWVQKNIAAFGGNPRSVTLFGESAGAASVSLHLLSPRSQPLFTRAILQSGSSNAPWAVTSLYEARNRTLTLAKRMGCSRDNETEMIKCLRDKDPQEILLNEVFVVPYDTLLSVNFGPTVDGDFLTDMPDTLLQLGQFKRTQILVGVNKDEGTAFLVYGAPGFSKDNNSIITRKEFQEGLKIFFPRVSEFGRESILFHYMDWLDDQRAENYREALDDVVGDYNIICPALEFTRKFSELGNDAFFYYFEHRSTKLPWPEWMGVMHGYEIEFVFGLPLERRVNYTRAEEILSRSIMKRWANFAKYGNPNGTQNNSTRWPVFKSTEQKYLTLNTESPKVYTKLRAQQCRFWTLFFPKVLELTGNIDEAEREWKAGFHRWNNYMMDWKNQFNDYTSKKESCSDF
compound,measurement,setting,value
COc1nc(-c2ccnc(NC(=O)C3CC3)c2)sc1C(=O)NCCNc1c2c(nc3ccccc13)CCCC2,IC50,[1],66 nM
same,IC50,[2],6.4 nM
COc1ccc(/C=C/C(=O)c2ccccc2O)cc1OC,IC50,[3],1410 nM
same,IC50,[4],28000 nM
O=C(/C=C/c1ccc(Br)cc1)c1ccc(Cl)s1,IC50,[5],16200 nM
same,IC50,[6],19300 nM
same,IC50,[7],700 nM
same,IC50,[8],1360 nM
Clc1ccc(-c2nnc(CNC3CCN(Cc4ccccc4)CC3)o2)c(Cl)c1,IC50,[9],250 nM
same,IC50,[10],210 nM
O=c1ccoc2ccc(OCCCN3CCCCC3)cc12,IC50,[7],7200 nM
same,IC50,[11],5580 nM
CN1CCN(c2ccc(C(=O)/C=C/c3cc(Br)ccc3F)cc2)CC1,IC50,[6],9440 nM
COc1ccc([C@@H]2c3[nH]c4ccccc4c3C[C@@H]3C(=O)N(CCC4CCN(Cc5ccccc5)CC4)CC(=O)N23)cc1,inhibition,[12],55.4%
COc1ccc2c3c1O[C@H]1C[C@@H](O)C=C[C@@]31CCN(CCCCCCNC13CC4CC(C)(CC(C)(C4)C1)C3)C2 [MEMAGAL],IC50,[13],1.16 nM
CN(Cc1ccccc1)Cc1ccc(/C=C2/Cc3ccc(OCCCCCN4CCN(C(c5ccc(F)cc5)c5ccc(F)cc5)CC4)cc3C2=O)cc1,IC50,[14],341 nM
same,IC50,[15],44.1 nM
O=C(/C=C/c1ccc(Cl)cc1)c1ccc(Cl)s1,IC50,[5],14800 nM
same,IC50,[6],19600 nM
same,IC50,[7],790 nM
same,IC50,[8],1600 nM
COC(=O)c1ccc(/C=N/NC(=O)c2ccc(Cl)nc2)cc1,IC50,[16],100 nM
same,IC50,[9],2800 nM
COc1ccc2c(c1)C/C(=C/c1ccccc1-c1ccc3ccccc3c1)C2=O,IC50,[17],101 nM
COc1ccc(-c2ccccc2/C=C2/Cc3cc(OC)ccc3C2=O)cc1,IC50,[14],99.4 nM
same,IC50,[15],21.2 nM
Cc1ccc(/C=C/C(=O)c2ccccc2N)cn1,IC50,[18],2920 nM
O=C1[C@@H]2Cc3c([nH]c4ccccc34)[C@@H](c3ccc4c(c3)OCO4)N2C(=O)CN1CCC1CCN(Cc2ccccc2)CC1,IC50,[13],30 nM
COc1ccc(/C=C2\Oc3cc(OCCN4CCCC4)ccc3C2=O)c(OC)c1OC,IC50,[7],340 nM
same,IC50,[11],1560 nM
Nc1ccccc1C(=O)/C=C/c1ccc(Cl)nc1,IC50,[18],19000 nM
same,IC50,[19],8340 nM
CNC(=O)c1sc(-c2ccnc(NC(=O)C3CC3)c2)nc1OC1CCN(Cc2ccccc2)CC1,IC50,[20],73 nM
CCOc1cc(/C=N/NC(=O)c2ccc(Cl)nc2)ccc1O,IC50,[16],30 nM
same,IC50,[9],700 nM
[O-]/[N+](=C\c1ccc2cccc(O)c2n1)Cc1ccccc1,IC50,[21],1 nM
same,IC50,[22],30 nM
COc1ccc(/C=C/C(=N/Oc2ccc(/C=C/C(=O)c3ccc(F)cc3)cc2)c2ccc(OC)cc2)cc1,IC50,[7],20 nM
COc1cc(/C=N/NC(=O)c2ccc(Cl)nc2)ccc1O,IC50,[16],30 nM
same,IC50,[9],600 nM
CCO/C(C)=N/Oc1ccc(/C=C/C(=O)c2ccc(F)cc2)cc1,IC50,[5],670 nM
same,IC50,[7],20 nM
same,IC50,[8],17400 nM
O=C(/C=C/c1ccccc1)c1ccc(N2CCOCC2)cc1,IC50,[6],> 40000 nM
same,IC50,[8],> 40000 nM
O=C(/C=C/c1ccccc1)c1ccccc1 [CHALCONE],IC50,[4],28200 nM
CSc1ccc(/C=C/C(=O)c2ccccc2N)cn1,IC50,[18],1220 nM
CN1CC(=O)N2[C@H](c3ccc4c(c3)OCO4)c3[nH]c4ccccc4c3C[C@@H]2C1=O,Papp at 18 h,[23],2.16 ×10⁻⁶ cm/s
COc1ccc([C@@H]2c3[nH]c4ccccc4c3C[C@H]3C(=O)N(CCC4CCN(Cc5ccccc5)CC4)CC(=O)N23)cc1,IC50,[13],10 nM

# From ChEMBL document CHEMBL6127041, “Dual-target inhibitors based on acetylcholinesterase: Novel agents for Alzheimer's disease” (Eur J Med Chem, 2024)
